Source: PubChem BioAssay (NCI)
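These data come from cells grown in 96-well plates and exposed to compound for 48 hours at five concentrations. GI50 marks 50% less growth. TGI: concentration producing complete growth inhibition.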

What was measured:
Test in all cases: growth of human tumour cells (NCI), 48 h
786-0 renal = test system: 786-0 renal
A498 renal = test system: A498 renal
ACHN renal = test system: ACHN renal
BT-549 breast = test system: BT-549 breast
CAKI-1 renal = test system: CAKI-1 renal
CCRF-CEM leukemia = test system: CCRF-CEM leukemia
COLO 205 colon = test system: COLO 205 colon
DU-145 prostate = test system: DU-145 prostate
EKVX NSCLC = test system: EKVX NSCLC
HCC-2998 colon = test system: HCC-2998 colon
HCT-116 colon = test system: HCT-116 colon
HCT-15 colon = test system: HCT-15 colon
HL-60(TB) leukemia = test system: HL-60(TB) leukemia
HOP-62 NSCLC = test system: HOP-62 NSCLC
HOP-92 NSCLC = test system: HOP-92 NSCLC
HS 578T breast = test system: HS 578T breast
HT29 colon = test system: HT29 colon
IGROV1 ovarian = test system: IGROV1 ovarian
K-562 leukemia = test system: K-562 leukemia
KM12 colon = test system: KM12 colon
LOX IMVI melanoma = test system: LOX IMVI melanoma
M14 melanoma = test system: M14 melanoma
MALME-3M melanoma = test system: MALME-3M melanoma
MCF7 breast = test system: MCF7 breast
MDA-MB-231 breast = test system: MDA-MB-231 breast
MDA-MB-435 = test system: MDA-MB-435
MDA-MB-468 breast = test system: MDA-MB-468 breast
MOLT-4 leukemia = test system: MOLT-4 leukemia
NCI-H226 lung = test system: NCI-H226 lung
NCI-H23 lung = test system: NCI-H23 lung
NCI-H460 lung = test system: NCI-H460 lung
NCI-H522 lung = test system: NCI-H522 lung
NCI/ADR-RES ovarian = test system: NCI/ADR-RES ovarian
OVCAR-3 ovarian = test system: OVCAR-3 ovarian
OVCAR-4 ovarian = test system: OVCAR-4 ovarian
OVCAR-5 ovarian = test system: OVCAR-5 ovarian
OVCAR-8 ovarian = test system: OVCAR-8 ovarian
PC-3 prostate = test system: PC-3 prostate
RPMI-8226 leukemia = test system: RPMI-8226 leukemia
RXF 393 renal = test system: RXF 393 renal
SF-268 CNS = test system: SF-268 CNS
SF-295 CNS = test system: SF-295 CNS
SF-539 CNS = test system: SF-539 CNS
SK-MEL-2 melanoma = test system: SK-MEL-2 melanoma
SK-MEL-28 melanoma = test system: SK-MEL-28 melanoma
SK-MEL-5 melanoma = test system: SK-MEL-5 melanoma
SK-OV-3 ovarian = test system: SK-OV-3 ovarian
SN12C renal = test system: SN12C renal
SNB-19 CNS = test system: SNB-19 CNS
SNB-75 CNS = test system: SNB-75 CNS
SR leukemia = test system: SR leukemia
SW-620 colon = test system: SW-620 colon
T-47D breast = test system: T-47D breast
TK-10 renal = test system: TK-10 renal
U251 CNS = test system: U251 CNS
UACC-257 melanoma = test system: UACC-257 melanoma
UACC-62 melanoma = test system: UACC-62 melanoma
UO-31 renal = test system: UO-31 renal

O=C(NN1C(=O)/C(=C/C=C/c2ccc([N+](=O)[O-])o2)SC1=S)c1ccc(Cl)cc1
GI50 (786-0 renal): 241 nM | TGI (786-0 renal): 550 nM | GI50 (A498 renal): 4200 nM | TGI (A498 renal): 9700 nM | GI50 (ACHN renal): 288 nM | TGI (ACHN renal): 780 nM | GI50 (BT-549 breast): 225 nM | TGI (BT-549 breast): 519 nM | GI50 (CAKI-1 renal): 346 nM | TGI (CAKI-1 renal): 1140 nM | GI50 (CCRF-CEM leukemia): 316 nM | TGI (CCRF-CEM leukemia): 9260 nM | GI50 (COLO 205 colon): 212 nM | TGI (COLO 205 colon): 428 nM | GI50 (DU-145 prostate): 614 nM | TGI (DU-145 prostate): 1550 nM | GI50 (EKVX NSCLC): 285 nM | TGI (EKVX NSCLC): 889 nM | GI50 (HCC-2998 colon): 268 nM | TGI (HCC-2998 colon): 706 nM | GI50 (HCT-116 colon): 84.8 nM | TGI (HCT-116 colon): 253 nM | GI50 (HCT-15 colon): 64.7 nM | TGI (HCT-15 colon): 208 nM | GI50 (HL-60(TB) leukemia): 2060 nM | TGI (HL-60(TB) leukemia): 11300 nM | GI50 (HOP-62 NSCLC): 780 nM | TGI (HOP-62 NSCLC): 2120 nM | GI50 (HOP-92 NSCLC): 299 nM | TGI (HOP-92 NSCLC): 734 nM | GI50 (HS 578T breast): 1350 nM | TGI (HS 578T breast): 4550 nM | GI50 (HT29 colon): 221 nM | TGI (HT29 colon): 475 nM | GI50 (IGROV1 ovarian): 596 nM | TGI (IGROV1 ovarian): 1390 nM | GI50 (K-562 leukemia): 121 nM | TGI (K-562 leukemia): 8280 nM | GI50 (KM12 colon): 473 nM | TGI (KM12 colon): 1910 nM | GI50 (LOX IMVI melanoma): 219 nM | TGI (LOX IMVI melanoma): 496 nM | GI50 (M14 melanoma): 189 nM | TGI (M14 melanoma): 369 nM | GI50 (MALME-3M melanoma): 186 nM | TGI (MALME-3M melanoma): 347 nM | GI50 (MCF7 breast): 293 nM | TGI (MCF7 breast): 1440 nM | GI50 (MDA-MB-231 breast): 180 nM | TGI (MDA-MB-231 breast): 341 nM | GI50 (MDA-MB-435): 203 nM | TGI (MDA-MB-435): 446 nM | GI50 (MDA-MB-468 breast): 1480 nM | TGI (MDA-MB-468 breast): 3090 nM | GI50 (MOLT-4 leukemia): 397 nM | TGI (MOLT-4 leukemia): 13600 nM | GI50 (NCI-H226 lung): 247 nM | TGI (NCI-H226 lung): 601 nM | GI50 (NCI-H23 lung): 202 nM | TGI (NCI-H23 lung): 442 nM | GI50 (NCI-H460 lung): 252 nM | TGI (NCI-H460 lung): 648 nM | GI50 (NCI-H522 lung): 180 nM | TGI (NCI-H522 lung): 353 nM | GI50 (NCI/ADR-RES ovarian): 493 nM | TGI (NCI/ADR-RES ovarian): 2000 nM | GI50 (OVCAR-3 ovarian): 268 nM | TGI (OVCAR-3 ovarian): 747 nM | GI50 (OVCAR-4 ovarian): 1260 nM | TGI (OVCAR-4 ovarian): 2790 nM | GI50 (OVCAR-5 ovarian): 734 nM | TGI (OVCAR-5 ovarian): 2000 nM | GI50 (OVCAR-8 ovarian): 245 nM | TGI (OVCAR-8 ovarian): 774 nM | GI50 (PC-3 prostate): 863 nM | TGI (PC-3 prostate): 3900 nM | GI50 (RPMI-8226 leukemia): 318 nM | TGI (RPMI-8226 leukemia): 2180 nM | GI50 (RXF 393 renal): 239 nM | TGI (RXF 393 renal): 837 nM | GI50 (SF-268 CNS): 1530 nM | TGI (SF-268 CNS): 4110 nM | GI50 (SF-295 CNS): 1740 nM | TGI (SF-295 CNS): 3280 nM | GI50 (SF-539 CNS): 202 nM | TGI (SF-539 CNS): 401 nM | GI50 (SK-MEL-2 melanoma): 219 nM | TGI (SK-MEL-2 melanoma): 503 nM | GI50 (SK-MEL-28 melanoma): 356 nM | TGI (SK-MEL-28 melanoma): 1100 nM | GI50 (SK-MEL-5 melanoma): 214 nM | TGI (SK-MEL-5 melanoma): 500 nM | GI50 (SK-OV-3 ovarian): 1710 nM | TGI (SK-OV-3 ovarian): 3180 nM | GI50 (SN12C renal): 172 nM | TGI (SN12C renal): 375 nM | GI50 (SNB-19 CNS): 1270 nM | TGI (SNB-19 CNS): 2540 nM | GI50 (SNB-75 CNS): 1200 nM | TGI (SNB-75 CNS): 2820 nM | GI50 (SR leukemia): 45.4 nM | TGI (SR leukemia): > 100000 nM | GI50 (SW-620 colon): 143 nM | TGI (SW-620 colon): 310 nM | GI50 (T-47D breast): 1640 nM | TGI (T-47D breast): 3100 nM | GI50 (TK-10 renal): 1470 nM | TGI (TK-10 renal): 2920 nM | GI50 (U251 CNS): 306 nM | TGI (U251 CNS): 1120 nM | GI50 (UACC-257 melanoma): 1480 nM | TGI (UACC-257 melanoma): 3220 nM | GI50 (UACC-62 melanoma): 223 nM | TGI (UACC-62 melanoma): 564 nM | GI50 (UO-31 renal): 671 nM | TGI (UO-31 renal): 1970 nM
